ChEMBL document CHEMBL1128994, “Carboxylic acid bioisosteres of -linked dipeptide analogues of the folate-based thymidylate synthase (TS) inhibitor, 2-desamino-2-methyl-N10-propargyl-5,8-dideazafolic acid (ICI 198583)” (Bioorg Med Chem Lett, 1996)

Legend:
L1210 [1] = test: Compound was evaluated for the growth inhibition of mouse L1210 cells in experiment 2; type: functional, cell-based
Thymidylate synthase [2] = target: T1, Thymidylate synthase (Mus musculus, UniProt P07607); test: Compound was evaluated for the inhibition of Thymidylate synthase in experiment 1
L1210 (1565) = test: Compound was evaluated for the growth inhibition of […].; type: functional, cell-based
L1210 [3] = test: Compound was evaluated for the growth inhibition of mouse L1210 (impaired) cells.; type: functional, cell-based
Thymidylate synthase [4] = target: T1, Thymidylate synthase; test: Compound was evaluated for the inhibition of Thymidylate synthase in experiment 2
L1210 [5] = test: Compound was evaluated for the growth inhibition of mouse L1210 cells in experiment 1; type: functional, cell-based
L1210 [6] = test: Compound was evaluated for the growth inhibition of mouse L1210 cells.; type: functional, cell-based
Thymidylate synthase [7] = target: T1, Thymidylate synthase; test: Compound was evaluated for the inhibition of Thymidylate synthase.

T1 sequence (P07607 whole entry): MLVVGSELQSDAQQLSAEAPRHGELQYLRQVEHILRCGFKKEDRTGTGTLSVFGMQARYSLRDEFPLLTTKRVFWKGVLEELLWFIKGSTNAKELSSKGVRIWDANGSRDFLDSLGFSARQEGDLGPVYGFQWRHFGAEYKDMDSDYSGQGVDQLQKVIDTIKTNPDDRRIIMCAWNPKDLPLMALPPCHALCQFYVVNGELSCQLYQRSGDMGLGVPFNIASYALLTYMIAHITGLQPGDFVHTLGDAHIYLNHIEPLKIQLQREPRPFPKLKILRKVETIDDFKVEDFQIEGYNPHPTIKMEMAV

| SMILES | IC50 (L1210 [1]) [nM] | IC50 (Thymidylate synthase [2]) [nM] | IC50 (L1210 (1565)) [nM] | IC50 (L1210 [3]) [nM] | IC50 (Thymidylate synthase [4]) [nM] | IC50 (L1210 [5]) [nM] | IC50 (L1210 [6]; Mus musculus, L1210) [nM] | IC50 (Thymidylate synthase [7]) [nM] | IC50 (L1210 [6]; l1210) [nM] |
| --- | --- | --- | --- | --- | --- | --- | --- | --- | --- |
| C#CCN(Cc1ccc2nc(C)[nH]c(=O)c2c1)c1ccc(C(=O)N[C@@H](CCC(=O)N[C@@H](CCc2nnn[nH]2)C(=O)O)C(=O)O)cc1 | 4900 | 6 | 41000 | 44000 | 4 | 6200 |  |  |  |
| C#CCN(Cc1ccc2nc(C)nc(O)c2c1)c1ccc(C(=O)N[C@@H](CCC(=O)N[C@H](CCC(=O)O)C(=O)O)C(=O)O)cc1 |  |  | 16000 | 15000 |  |  | 330 |  |  |
| C#CCN(Cc1cc2c(O)nc(C)nc2cc1C)c1ccc(C(=O)N[C@@H](CCC(=O)N[C@@H](CCc2nnn[nH]2)C(=O)O)C(=O)O)c(F)c1 | 750 | 0.82 | 7400 | 8000 | 1.86 | 1500 |  |  |  |
| C#CCN(Cc1cc2c(=O)[nH]c(C)nc2cc1C)c1ccc(C(=O)N[C@@H](CCC(=O)NC(CCC(=O)O)C(=O)O)C(=O)O)c(F)c1 (stereo in doubt) |  | 0.4 | 8700 | 6800 | 0.92 |  | 200 |  |  |
| C#CCN(Cc1cc2c(O)nc(C)nc2cc1C)c1ccc(C(=O)N[C@@H](CCC(=O)N[C@@H](C)c2nnn[nH]2)C(=O)O)c(F)c1 |  |  | 1000 | 2000 |  |  | 350 | 1 | 260 |
